From ChEMBL document CHEMBL1201862, “PubChem BioAssay data set” (2004)
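How tested: cells in 96-well plates exposed to compound for 48 hours at five concentrations. The concentration for 50% growth inhibition is given as GI50.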 Activity calls are given as the source filed them. No stated cut-off is given here; in the data, active = GI50 up to about 1.1 µM and inactive = higher.

Experiments:
Test in all cases: inhibition of tumour cell growth, NCI panel, 48 h
[1] = system: HCC 2998
[2] = system: K562
[3] = system: HCT-15
[4] = system: OVCAR-3
[5] = system: COLO 205
[6] = system: TK-10
[7] = system: HCT-116
[8] = system: HL-60
[9] = system: UACC-62
[10] = system: SNB-75
[11] = system: PC-3
[12] = system: DU-145
[13] = system: SK-MEL-2
[14] = system: T47D
[15] = system: SK-OV-3
[16] = system: SF-539
[17] = system: NCI-H226
[18] = system: EKVX
[19] = system: HOP-62
[20] = system: RPMI-8226
[21] = system: SN12C
[22] = system: NCI-H23
[23] = system: MDA-MB-231
[24] = system: BT-549
[25] = system: IGROV-1
[26] = system: OVCAR-4
[27] = system: A498
[28] = system: SR
[29] = system: MDA-N
[30] = system: Malme-3M
[31] = system: RXF 393
[32] = system: NCI/ADR-RES
[33] = system: CCRF-CEM
[34] = system: CAKI-1
[35] = system: 786-0
[36] = system: LOX IMVI
[37] = system: OVCAR-8
[38] = system: Hs-578T
[39] = system: NCI-H522
[40] = system: U-251
[41] = system: SK-MEL-5
[42] = system: ACHN
[43] = system: MDA-MB-435
[44] = system: MOLT-4
[45] = system: UO-31
[46] = system: OVCAR-5
[47] = system: MCF7
[48] = system: M14
[49] = system: UACC-257
[50] = system: SW-620
[51] = system: SF-268
[52] = system: NCI-H460
[53] = system: KM12
[54] = system: SNB-19
[55] = system: HOP-92
[56] = system: A549
[57] = system: HT-29
[58] = system: SK-MEL-28
[59] = system: SF-295
[60] = system: DLD-1
[61] = system: M19-MEL
[62] = system: KM-20L2

SMILES: O=C(O)Cc1ccc(Oc2nc3ccccc3nc2-c2cccs2)cc1
- GI50 [1]: 57.4 µM (inactive)
- GI50 [2]: 99.3 µM (inactive)
- GI50 [3]: 35.3 µM
- GI50 [4]: 48.4 µM (inactive)
- GI50 [5]: 31 µM (inactive)
- GI50 [6]: 95.1 µM (inactive)
- GI50 [7]: 54.6 µM (inactive)
- GI50 [8]: 55.8 µM (inactive)
- GI50 [9]: 58.1 µM (inactive)
- GI50 [10]: 27.2 µM (inactive)
- GI50 [11]: 46.3 µM (inactive)
- GI50 [12]: 81.7 µM (inactive)
- GI50 [13]: 84.1 µM (inactive)
- GI50 [14]: 20 µM (inactive)
- GI50 [15]: > 100 µM (inactive)
- GI50 [16]: 79.4 µM (inactive)
- GI50 [17]: 52.4 µM (inactive)
- GI50 [18]: 32.4 µM (inactive)
- GI50 [19]: > 100 µM (inactive)
- GI50 [20]: 33.1 µM (inactive)
- GI50 [21]: 84.9 µM (inactive)
- GI50 [22]: 55.8 µM (inactive)
- GI50 [23]: > 100 µM (inactive)
- GI50 [24]: 30.5 µM (inactive)
- GI50 [25]: 68.9 µM (inactive)
- GI50 [26]: 51.1 µM (inactive)
- GI50 [27]: 22.1 µM (inactive)
- GI50 [28]: 38.8 µM (inactive)
- GI50 [29]: 82.2 µM (inactive)
- GI50 [30]: > 100 µM (inactive)
- GI50 [31]: 17.4 µM (inactive)
- GI50 [32]: 60.5 µM (inactive)
- GI50 [33]: 49.3 µM (inactive)
- GI50 [34]: 55.7 µM (inactive)
- GI50 [35]: 80 µM (inactive)
- GI50 [36]: 40.6 µM (inactive)
- GI50 [37]: 71.9 µM (inactive)
- GI50 [38]: 61.7 µM (inactive)
- GI50 [39]: 65.2 µM (inactive)
- GI50 [40]: 30.5 µM (inactive)
- GI50 [41]: 72.9 µM (inactive)
- GI50 [42]: 56.6 µM (inactive)
- GI50 [43]: 92 µM (inactive)
- GI50 [44]: 50 µM (inactive)
- GI50 [45]: 37.3 µM (inactive)
- GI50 [46]: 62.7 µM (inactive)
- GI50 [47]: 38.5 µM (inactive)
- GI50 [48]: 66.4 µM (inactive)
- GI50 [49]: > 100 µM (inactive)
- GI50 [50]: > 100 µM (inactive)
- GI50 [51]: 66.4 µM (inactive)
- GI50 [52]: 50.7 µM (inactive)
- GI50 [53]: 44.2 µM (inactive)
- GI50 [54]: 82.8 µM (inactive)
- GI50 [55]: 34.3 µM (inactive)
- GI50 [56]: 46.7 µM (inactive)
- GI50 [57]: 42.6 µM (inactive)
- GI50 [58]: 60.4 µM (inactive)
- GI50 [59]: 42.6 µM (inactive)

SMILES: COc1cc(C2c3cc4c(cc3[C@@H](NC3CCN(Cc5ccccc5)CC3)C3COC(=O)[C@H]23)OCO4)cc(OC)c1O (some centres not stated)
- GI50 [1]: 0.274 µM (active)
- GI50 [3]: 0.132 µM
- GI50 [4]: 0.277 µM (active)
- GI50 [60]: 0.408 µM (active)
- GI50 [7]: 0.195 µM (active)
- GI50 [8]: 0.0189 µM (active)
- GI50 [15]: 0.0457 µM (active)
- GI50 [16]: 0.0706 µM (active)
- GI50 [17]: 0.0137 µM (active)
- GI50 [19]: 0.0282 µM (active)
- GI50 [27]: 0.136 µM (active)
- GI50 [33]: 0.0251 µM (active)
- GI50 [37]: 0.161 µM (active)
- GI50 [46]: 0.34 µM (active)
- GI50 [61]: 0.308 µM (active)
- GI50 [51]: 0.203 µM (active)
- GI50 [62]: 0.354 µM (active)
- GI50 [53]: 0.33 µM (active)
- GI50 [54]: 0.177 µM (active)
- GI50 [56]: 0.0133 µM (active)
- GI50 [57]: 0.243 µM (active)
- GI50 [58]: 0.627 µM (active)
- GI50 [59]: 0.0311 µM (active)
